The test system of assay [1] is TNFα production in human whole blood. The experiment in a line: Human Whole Blood test: inhibition of LPS-stimulated TNFα production. Type of assay: cell-based. The procedure: The ability of the compounds of this invention to inhibit TNFα production was also assessed in a human whole blood assay. Human whole blood secretes TNFα when stimulated with LPS. This property of blood forms the basis of an assay which is used as a secondary test for compounds which profile as active in the PBMC test.
Heparinised (10 units/ml) human blood was obtained from volunteers. 160 μl whole blood were added to 96 well round-bottom plates (Corning 25850). Compounds were solubilised and serially diluted in RPMI 1640 medium (Gibco) supplemented with 50 units/ml penicillin, 50 μg/ml streptomycin and 2 mM glutamine, as detailed above. 20 μl of each test concentration was added to appropriate wells (triplicate cultures). 20 μl of RPMI 1640 medium supplemented with antibiotics and glutamine was added to control wells. Plates were incubated for 30 minutes at 37° C. (humidified incubator), prior to addition of 20 μl LPS (final concentration 10 μg/ml). RPMI 1640 medium was added to control wells. Six “LPS alone” and four “medium alone” controls were included on each plate. A known TNFα synthesis/secretion inhibitor was included in each test. Plates were incubated for 6 hours at 37° C. (humidified incubator). […] TNFα levels were measured by ELISA (see WO92/10190 and Current Protocols in Molecular Biology, vol 2 by Frederick M. Ausbel et al., John Wiley and Sons Inc.). […]

For another assay, the target named is T1, p38α (Homo sapiens, UniProt Q16539).
T1 construct: c-myc (N); 6His (N); made in house; host or cells: E. coli (PET vectors)
The experiment in a line: In vitro enzyme assay, p38α. Type of assay: biochemical. The settings on record: read-out: IC50 against p38α. The procedure:
The ability of compounds of the invention to inhibit the enzyme p38 kinase was assessed. Activity of test compounds against each of the p38α and p38β isoforms of the enzyme was determined. […]
Test compounds were solubilised in DMSO and 10 μl of a 1:10 diluted sample in ‘Kinase Buffer’ was added to a well in a Microtiter plate. […] The precipitated protein was phosphorylated by p38 kinase and test compounds were assessed for their ability to inhibit this phosphorylation. The plates were filtered using a Canberra Packard Unifilter and washed with 2% TCA, dried overnight and counted on a Top Count scintillation counter.
Test compounds were tested initially at a single dose and active compounds were retested to allow IC50 values to be determined.

pIC50: −log10 of the molar value.

Data on one compound can be found in patent US6794380B2, “Amide derivatives” (AstraZeneca AB, priority 1999, dated 2004).

T1 sequence (Q16539 whole entry): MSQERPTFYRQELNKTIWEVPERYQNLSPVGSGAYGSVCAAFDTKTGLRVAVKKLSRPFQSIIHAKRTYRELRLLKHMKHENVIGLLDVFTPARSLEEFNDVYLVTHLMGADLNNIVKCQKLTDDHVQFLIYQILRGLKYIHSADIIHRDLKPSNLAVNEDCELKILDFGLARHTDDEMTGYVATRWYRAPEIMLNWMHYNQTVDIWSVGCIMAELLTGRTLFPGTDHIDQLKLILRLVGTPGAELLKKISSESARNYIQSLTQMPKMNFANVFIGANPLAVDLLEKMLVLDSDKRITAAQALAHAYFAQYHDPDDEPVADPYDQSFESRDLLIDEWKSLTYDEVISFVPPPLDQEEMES

Take `CN(C)CCCN(C)c1ccc(NC(=O)c2cc(NC(=O)c3ccnc(N4CCOCC4)c3)ccc2Cl)cn1` [N-{6-[N-(3-dimethylaminopropyl)-N-methylamino]pyrid-3-yl}-2-chloro-5-(2-morpholinopyrid-4-ylcarbonylamino)benzamide]: the pIC50 is around 5.30 in assay [1] and around 7.30 on p38α.

Broadly, the pIC50 is the negative decadic logarithm of the IC50, by convention in mol/L.
